Measured values as given in patent EP3454861B1, “BENZOXAZINE OR QUINAZOLINE DERIVATIVES FOR USE IN THE TREATMENT OF ALZHEIMER'S DISEASE” (Biocodex, priority 2016, dated 2017).

Key:
Type in all cases: in vivo, souris
[1] = tested on: modèle murin de maladie d'Alzheimer par administration du peptide amyloïde β25-35; assay: Spontaneous alternation test in the Y-maze (spatial working memory), Aβ25-35 mouse model; conditions: all doses tested (12,5, 25, 50 mg/kg per day IP), day 8, Aβ25-35 9 nmol ICV
Text: Soixante-douze souris males Swiss (30-35 grammes) sont utilisées. Six groupes sont constitués et soumis à différents traitements : Tableau 1. Groupes de traitement.
(§1) Le 1^er jour : une version « mélangée » (scrambled) du peptide amyloïde β25-35 (Sc.Aβ, témoin négatif) ou le peptide amyloïde β25-35 (Aβ25-35) est injecté par voie intra-cérébroventriculaire (ICV) (le peptide Aβ25-35 provoque l'intoxication cellulaire). Entre le 1^er jour et le 10^ème jour, les traitements sont administrés une fois par jour par voie intrapéritonéale (IP).
Du 8^ème au 10^ème jour, deux tests comportementaux sont effectués : • Procédure d'alternance spontanée dans le labyrinthe en Y (évaluation de la mémoire spatiale de travail) le 8^ème jour, soit 7 jours après l'injection de peptide; • Réponse d'évitement passif (évaluation de la mémoire contextuelle à long terme) avec l'entrainement le 9^ème jour et la séance de rétention le 10^ème jour.
Chaque souris est anesthésiée avec 2,5% d"isoflurane. Le peptide Aβ25-35 (9 nmol/souris) ou le peptide Sc.Aβ (9 nmol/souris) est injecté par voir ICV, dans un volume final de 3 µL/souris. […]

Bcl2 = assay: ELISA of Bcl2 in mouse hippocampus after Aβ25-35
Text: as §1
(§2) A la fin de la session de rétention d'évitement passif, le 10^ème jour, les animaux sont sacrifiés par décapitation. L'hippocampe et le cortex frontal sont disséqués et congelés dans l'azote liquide. L'hippocampe est utilisé pour mesurer le taux de peroxydation lipidique à l'aide d'une méthode colorimétrique et pour évaluer les taux de 4 marqueurs biochimiques par des tests ELISA. Le cortex est conservé à -80°C en attente d'analyses supplémentaires. Les plasmas sont également conservés en attente d'analyses supplémentaires. Les échantillons biologiques sont jetés après 3 mois.
Pour tous les dosages, les […] sont homogénéisés, après décongélation, dans un tampon Tris (Tris 50 mM, 150 mM NaCl, pH 7,5) et traités par ultrasons pendant 20 secondes. […] Pour chaque dosage, l'absorbance est lue à 450 nm et la concentration est calculée en utilisant la courbe standard. Les résultats sont exprimés en pg ou ng de marqueur par mg de tissu et en pourcentage de solution Sc.Aβ + véhicule. 6 échantillons par groupe (n = 36 kits ELISA) sont dosés en double.

peroxydation lipidique = assay: Lipid peroxidation measurement in mouse hippocampus (colorimetric, CHP equivalents); conditions: Etifoxine 12,5-50 mg/kg per day IP, Aβ25-35 ICV, day 10
Text: as §1, §2
Les souris de chaque groupe sont sacrifiées par décapitation et les deux hippocampes sont prélevés, pesés et conservés dans de l'azote liquide jusqu'à l'analyse. […] Après avoir lu l'absorbance à 580 nm (A5801), 10 µl d'hyperoxyde de cumène (CHP) (1 mM) sont ajoutés à l'échantillon et il est incubé pendant 30 minutes à température ambiante pour déterminer le degré d'oxydation maximal. L'absorbance est mesurée à 580 nm (A5802). […]

SMILES: CCNC1=Nc2ccc(Cl)cc2C(C)(c2ccccc2)O1 (centres unmarked) [Etifoxine, chlorhydratede 6-chloro-2-éthylamino-4-méthyl-4-phényl-4H-[3,1]benzoxazine]
- déficits d'apprentissage (alternance spontanée, mémoire spatiale) [1]: atténue de façon significative les déficits d'apprentissage
- Taux de protéine Bcl2 (Bcl2; Aβ25-35/Etifoxine 12.5 mg/kg IP): 97,2 ± 2,1 % de Sc.Aβ/V
- Taux de protéine Bcl2 (Bcl2; Aβ25-35/Etifoxine 25 mg/kg IP): 99,4 ± 2,3 % de Sc.Aβ/V
- Taux de protéine Bcl2 (Bcl2; Aβ25-35/Etifoxine 50 mg/kg IP): 102,3 ± 3,2 % de Sc.Aβ/V
- peroxydation lipidique dans l'hippocampe (stress oxydatif induit par Aβ25-35) (peroxydation lipidique): diminuer de manière dose-sensible le stress oxydatif
